Reference: publication PMC9324262, “Selective CDK9 Inhibition by Natural Compound Toyocamycin in Cancer Cells” (Cancers, 2022)
Where “and” joins values, the source holds several entries; their conditions need not be identical. Equal entries are not always repeated.

What was measured:
[1] = system: 451-Lu-BR human melanoma cells; assay: proliferation assay by cell counting; assay type: cell-based
Procedure: Proliferation assays were performed for 451-Lu-BR human melanoma cells in response to toyocamycin exposure. First, 20,000 cells were seeded per well in 24-well plates. Cells were treated with either DMSO (<0.01% final concentration) or various toyocamycin concentrations. Cell proliferation was assessed by cell counting using a hemocytometer (n = 3) after 24, 48, and 72 h of treatment. The data were plotted as the total number of cells in response to toyocamycin for each treatment duration relative to DMSO treated cells.

[2] = target: T1, CDK6/Cyclin D3 (Homo sapiens, UniProt Q00534); assay: in vitro kinase assay CDK6/Cyclin D3 (Kinase-Glo Plus); assay type: biochemical
T1 construct: purchased BPS Bioscience
T1 sequence (Q00534 whole entry): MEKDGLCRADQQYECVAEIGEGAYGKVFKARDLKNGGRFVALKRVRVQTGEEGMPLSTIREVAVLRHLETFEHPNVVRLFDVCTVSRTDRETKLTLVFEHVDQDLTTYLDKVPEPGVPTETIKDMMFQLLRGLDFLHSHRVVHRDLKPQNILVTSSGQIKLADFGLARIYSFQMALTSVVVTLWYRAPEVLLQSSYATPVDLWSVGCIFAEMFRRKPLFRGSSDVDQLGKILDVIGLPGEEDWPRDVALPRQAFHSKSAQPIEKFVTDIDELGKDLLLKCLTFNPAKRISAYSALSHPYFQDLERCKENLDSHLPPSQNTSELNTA
T1 sequence (P30281 whole entry partner): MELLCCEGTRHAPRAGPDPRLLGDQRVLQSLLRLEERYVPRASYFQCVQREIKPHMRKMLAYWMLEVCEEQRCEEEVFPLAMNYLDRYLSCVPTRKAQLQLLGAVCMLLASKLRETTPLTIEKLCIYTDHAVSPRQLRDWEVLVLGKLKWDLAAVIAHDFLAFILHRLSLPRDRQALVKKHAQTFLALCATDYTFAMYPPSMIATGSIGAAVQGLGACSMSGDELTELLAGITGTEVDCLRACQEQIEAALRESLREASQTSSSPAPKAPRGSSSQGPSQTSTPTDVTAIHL
Procedure: (§1) The in vitro enzymatic assays were conducted at BPS Bioscience. CDK9/Cyclin T1, CDK2/Cyclin 2A, CDK4/Cyclin D3, and CDK6/Cyclin D3 enzymatic activities were tested with an ATP Kinase-Glo Plus Luminescence kinase assay kit (Promega, V6073, Madison, WI, USA), while the CDK7/Cyclin H/MAT1 activities were tested using ADP-Glo Kinase (Promega, V6930). These assays measure kinase activity by quantifying the amount of ATP or ADP remaining in solution following a kinase reaction. The luminescent signal from the assay is correlated to the amount of ATP or ADP present and is inversely correlated to the kinase activity. The compounds were diluted to 10% DMSO and were added to the reaction so that the final concentration of DMSO was 1% in all reactions. All enzymatic reactions were conducted at 30 °C for 60 min. […] After the enzymatic reaction, the luminescence signal was measured using a BioTek Synergy 2 microplate reader (Agilent, Santa Clara, CA, USA). Kinase activity assays were performed in duplicate at each concentration and the percent of kinase activity was calculated as a ratio of luminescence intensities in the absence or in presence of the compounds. […] IC50 values were determined by the concentration causing a half-maximal percent activity (BPS Bioscience, San Diego, CA, USA).

[3] = system: Rb phosphorylation level (T826); assay: Western blot, Rb and phospho-Rb T826; assay type: cell-based, human; details: HCT116, 50–500 nM, 6 h
[4] = target: T2, CDK4/Cyclin D3 (Homo sapiens, UniProt P11802); assay: in vitro kinase assay CDK4/Cyclin D3 (Kinase-Glo Plus); assay type: biochemical
T2 construct: purchased BPS Bioscience
T2 sequence (P11802 whole entry): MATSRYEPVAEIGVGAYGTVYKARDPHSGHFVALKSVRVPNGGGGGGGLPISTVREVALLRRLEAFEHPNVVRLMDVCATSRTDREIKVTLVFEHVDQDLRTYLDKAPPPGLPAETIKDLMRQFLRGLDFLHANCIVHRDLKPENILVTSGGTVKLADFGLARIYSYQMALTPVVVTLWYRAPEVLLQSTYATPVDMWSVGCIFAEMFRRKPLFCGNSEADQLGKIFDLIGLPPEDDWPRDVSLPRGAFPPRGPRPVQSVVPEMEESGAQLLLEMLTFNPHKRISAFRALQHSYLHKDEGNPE
T2 sequence (P30281 whole entry partner): as the sequence (P30281 whole entry partner) above
Procedure: as §1

[5] = system: HCT116 SFRP1-GFP colon cancer cells; assay: GFP reactivation in HCT116 SFRP1-GFP model; assay type: cell-based, human; details: dose-response
Procedure: YB5 cells are derived from SW48 cells (human colon cancer cell line), and contain a single insertion of a DNA hypermethylated cytomegalovirus (CMV) promoter driving the green fluorescent protein (GFP) gene, as previously described. YB5 cells are cultured in L-15 medium supplemented with 10% fetal bovine serum and grown in log-phase in 1% CO2 atmosphere. YB5 cells were authenticated by DNA fingerprinting prior to drug screening and validation experiments. GFP expression in YB5 cells is silenced in >99.9% of the cells due to the CMV promoter DNA hypermethylation and repressive chromatin marks around the transcriptional start site. The human HCT116 colon cancer-derived GFP-reporter system, comprising a GFP gene under the control of an endogenously hypermethylated SFRP1 gene promoter, was kindly provided by Dr. Stephen Baylin (Johns Hopkins University). These cells are cultured in McCoy’s 5A medium supplemented with 10% fetal bovine serum and grown in log-phase in 5% CO2 atmosphere at 37 °C. […]
After treatment, YB5 cells were trypsinized for 15 min and resuspended in L-15 media containing propidium iodide (PI) to stain dead cells. GFP expression and PI staining were quantified by a BD LSR II flow cytometer (BD Biosciences, San Jose, CA, USA). A maximum of 10,000 cells was analyzed per well. […]

[6] = target: T3, CDK9/Cyclin T1 (Homo sapiens, UniProt P50750); assay: in vitro kinase assay CDK9/Cyclin T1 (Kinase-Glo Plus luminescence); assay type: biochemical
T3 construct: purchased BPS Bioscience
T3 sequence (P50750 whole entry): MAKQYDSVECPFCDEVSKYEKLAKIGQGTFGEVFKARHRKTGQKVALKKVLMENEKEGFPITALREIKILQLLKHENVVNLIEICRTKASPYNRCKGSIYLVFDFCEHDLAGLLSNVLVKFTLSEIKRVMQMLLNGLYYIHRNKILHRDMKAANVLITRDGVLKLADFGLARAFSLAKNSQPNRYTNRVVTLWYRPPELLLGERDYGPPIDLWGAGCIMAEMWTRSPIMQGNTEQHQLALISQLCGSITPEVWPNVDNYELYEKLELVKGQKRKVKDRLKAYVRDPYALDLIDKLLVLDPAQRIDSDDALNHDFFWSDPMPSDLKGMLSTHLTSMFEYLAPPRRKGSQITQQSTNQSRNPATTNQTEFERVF
T3 sequence (O60563 whole entry partner): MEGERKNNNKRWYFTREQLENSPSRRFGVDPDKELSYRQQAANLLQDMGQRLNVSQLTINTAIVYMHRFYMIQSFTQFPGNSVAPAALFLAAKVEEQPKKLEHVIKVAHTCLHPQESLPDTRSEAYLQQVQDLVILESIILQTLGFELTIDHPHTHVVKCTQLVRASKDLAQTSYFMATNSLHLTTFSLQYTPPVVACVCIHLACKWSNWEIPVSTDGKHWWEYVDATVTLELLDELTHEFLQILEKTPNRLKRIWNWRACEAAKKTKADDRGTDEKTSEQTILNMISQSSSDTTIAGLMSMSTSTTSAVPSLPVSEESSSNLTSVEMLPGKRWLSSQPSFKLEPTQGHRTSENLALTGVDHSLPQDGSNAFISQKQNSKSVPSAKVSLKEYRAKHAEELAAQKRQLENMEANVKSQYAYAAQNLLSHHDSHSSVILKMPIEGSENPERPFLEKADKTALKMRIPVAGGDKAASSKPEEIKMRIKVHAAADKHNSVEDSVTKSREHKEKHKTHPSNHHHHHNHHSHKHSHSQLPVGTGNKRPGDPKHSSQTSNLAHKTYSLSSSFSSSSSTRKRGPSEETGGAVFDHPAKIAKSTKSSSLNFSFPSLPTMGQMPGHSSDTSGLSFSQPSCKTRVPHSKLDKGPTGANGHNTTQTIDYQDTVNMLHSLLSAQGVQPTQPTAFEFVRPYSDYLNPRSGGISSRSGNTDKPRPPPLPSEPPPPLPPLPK
Procedure: as §1

[7] = target: T4, CDK7/Cyclin H/MAT1 (Homo sapiens, UniProt P50613); assay: in vitro kinase assay CDK7/Cyclin H/MAT1 (ADP-Glo); assay type: biochemical
T4 construct: purchased BPS Bioscience
T4 sequence (P50613 whole entry): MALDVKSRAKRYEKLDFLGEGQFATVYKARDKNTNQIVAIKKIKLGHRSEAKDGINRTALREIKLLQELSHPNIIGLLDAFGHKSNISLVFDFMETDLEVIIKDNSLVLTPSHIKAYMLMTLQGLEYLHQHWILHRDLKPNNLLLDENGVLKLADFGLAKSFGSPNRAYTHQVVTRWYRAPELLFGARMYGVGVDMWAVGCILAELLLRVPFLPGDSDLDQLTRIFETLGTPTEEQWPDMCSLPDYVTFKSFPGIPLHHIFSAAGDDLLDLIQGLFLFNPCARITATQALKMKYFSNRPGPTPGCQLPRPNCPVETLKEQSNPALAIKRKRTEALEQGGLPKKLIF
T4 sequence (P51946 whole entry partner): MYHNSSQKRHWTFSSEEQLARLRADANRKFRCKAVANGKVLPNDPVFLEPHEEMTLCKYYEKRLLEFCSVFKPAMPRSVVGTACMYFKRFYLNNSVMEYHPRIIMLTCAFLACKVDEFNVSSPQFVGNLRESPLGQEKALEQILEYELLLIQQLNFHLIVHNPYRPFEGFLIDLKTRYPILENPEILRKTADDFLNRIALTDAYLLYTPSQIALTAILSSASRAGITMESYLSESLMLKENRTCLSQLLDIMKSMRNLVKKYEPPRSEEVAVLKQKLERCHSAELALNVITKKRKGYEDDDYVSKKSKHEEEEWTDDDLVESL
T4 sequence (P51948 whole entry partner): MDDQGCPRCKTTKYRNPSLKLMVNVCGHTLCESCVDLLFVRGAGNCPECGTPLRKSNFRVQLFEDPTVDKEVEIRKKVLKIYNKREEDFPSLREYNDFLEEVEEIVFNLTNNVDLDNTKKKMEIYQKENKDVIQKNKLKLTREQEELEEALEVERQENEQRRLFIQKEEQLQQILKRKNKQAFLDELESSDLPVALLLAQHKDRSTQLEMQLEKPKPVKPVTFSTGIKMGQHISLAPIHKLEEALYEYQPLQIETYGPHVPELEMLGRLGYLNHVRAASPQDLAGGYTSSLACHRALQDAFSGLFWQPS
Procedure: as §1

[8] = system: HCT116 cells; assay: cell cycle analysis by flow cytometry; assay type: cell-based, human
Procedure: For cell cycle analysis, cells were cultured in T25 flasks, trypsinized, and washed with PBS. Then, 1 × 10^6 cells were fixed in 100% cold ethanol overnight at −20 °C. Cells were then washed with PBS and treated with 100 μg/mL RNase A (Invitrogen, Waltham, MA USA) for 20 min, at 37 °C. DNA was stained with 5 μg/mL propidium iodide (Sigma, St. Louis, MO, USA). The cell cycle was analyzed by flow cytometry using a Guava® easyCyte HT System (Millipore) with GuavaSoft 3.2 software.

[9] = 6 h treatment followed by 18 h without exposure

SMILES: N#Cc1cn([C@@H]2O[C@H](CO)[C@@H](O)[C@H]2O)c2ncnc(N)c12 [toyocamycin, 7-Deaza-7-cyanoadenosine]
- cell proliferation ([1]; 72 h treatment): full proliferation arrest
- cell proliferation ([1]; low doses, 24 h treatment): did not reduce cell proliferation
- IC50 [2]: > 10 µM
- Rb and its phosphorylated form (T826) [3]: did not change
- IC50 [4]: 15 µM
- GFP expression [5]: induced dose-dependent GFP expression
- IC50 ([6]; IC50, 10 µM ATP, 30 °C, 60 min): 0.079 µM and 0.0795 µM
- IC50 ([6]; IC50, as quoted in docking section): 0.08 µM
- IC50 [7]: 2.8 µM
- times less enzymatic inhibition of CDK7 as compared to CDK9 ([7]; CDK7/Cyclin H/MAT1 vs CDK9/CycT1): 35 times
- apoptotic cells [8, 9]: 10%
- cell cycle [8, 9]: not significantly impacted
- cell cycle ([8]; 24 h treatment, 500–1000 nM): significantly blocked the cell cycle
